Test results taken from patent publication US20240124483A1, “Methods for the Treatment of Fibrotic Disease” (SHY Therapeutics, LLC, priority 2021, published 2024).
Where two headings read alike, the source gives them in different places.

Legend:
[1] = system: JNK; assay: JNK Activation Assay in Panc-1 (western blot); type: cell-based, Human; design: key: Y = yes; N = No; settings: at 10 μM
Procedure: (§1) Cell lines: Human tumor-derived pancreatic cancer cell line Panc-1 and mouse muscle myoblast C2C12 were purchased from American Type Culture Collection and grown in complete DMEM-High Glucose, supplemented with penicillin (100 U/mL), streptomycin (100 μg/mL), and 10% heat-inactivated FBS at 37° C. in a humidified incubator with 5% CO2.
(§2) Method: Cells were plated at 350000 cells/well density in a 12-well plate, allowed 3 hours to adhere to the plate, then starved in the appropriate medium in the presence of 0.5% FBS overnight. The small molecules to be tested were added to the cells in the final concentration of 10 μM in the presence of 0.3% DMSO for 3 hours incubation at 37° C. For IC50 value determination, serial dilutions of compounds were added to cells under the same conditions. Next, Panc-1 cells were stimulated with 10 ng/ml TGF-b1 for 1 hour, and C2C12 cells were stimulated with 10 ng/ml TGF-b1 for 20 minutes (recombinant human TGF-b1, R&D Systems). After stimulation cells were lysed with lysis buffer containing 1% Triton X-100, EDTA, and Halt™ Protease & Phosphatase Inhibitor Cocktail (Thermo Scientific). Protein concentration was assessed by BCA protein assay (Thermo Scientific). Phosphorylation level of JNK was determined by western blot.
(§3) Western blot protocol: Equal amounts of protein (15-50 μg) were separated by SDS-PAGE and transferred to nitrocellulose membranes (Invitrogen by Thermo Fisher Scientific). The membrane was stained with Ponceau S Stain (Boston BioProducts) to verify uniform protein loading. Membranes were blocked with 10% milk and phosphorylation levels of Smad2, Smad3, INK and p38 were assessed by incubating overnight at 4° C. with the following antibody: Phospho-SAPK/JNK (Thr183/Tyr185), from Cell Signaling Technology. Then the membranes were incubated with HRP-conjugated secondary antibody (Jackson Immunoresearch, West Grove, PA). Bands were incubated in Amersham ECL Prime Western Blotting Detection Reagent (GE Healthcare) and visualized using the ChemiDoc MP imaging system (Bio-Rad).

[2] = system: MAPK p38; assay: MAPK p38 Activation Assay in Panc-1 (western blot); type: cell-based, Human; design: key: Y = yes; N = No; settings: at 10 μM
Procedure: as §1
as §2, with “MAPK p38” for “JNK”
as §3, with “Smad2/Smad3” for “Smad2, Smad3, INK and p38”, “Phospho-p38 MAPK (Thr180/Tyr182),” for “Phospho-SAPK/JNK (Thr183/Tyr185),”

[3] = molecular target: KRas wild type (Homo sapiens (Human), UniProt P01116); assay: Ras GTP Binding Domain Inhibition Assay, KRas wild type
Procedure: A Ras Superfamily Activity Assay (as disclosed in International Application No. PCT/US2018/038613, filed Jun. 20, 2018, which is incorporated by reference in its entirety) was used as a specific assay to evaluate compounds against the following for the following Ras Superfamily proteins: KRas wild type, KRas Q61H mutant, KRas G12C mutant, KRas G12D mutant, Rac-1, and Rho-A.
Buffer-I: • 25 mM Tris-HCl, pH 7.4 • 27 mM KCl • 137 mM NaCl • 1 mM MgCl2 • 1 mM DTT
Buffer-II: • 50 mM Tris-HCl, pH 7.0 • 1 mM MgCl2 • 1 mM DTT
The small GTPases proteins: KRas wild type. KRas Q61H mutant, KRas G12C mutant, KRas G12D mutants, Rac-1, and Rho-A were expressed as His-tagged proteins. In addition, the Guanosine nucleotide Exchange Factor (GEF) Sos protein (residues 556-1049) was expressed as a His-tagged protein. In cells, the guanine nucleotide exchange factor Sos protein promotes activation of Ras proteins by stimulating an exchange of GDP for GTP. The inclusion of Sos to the Ras GTP binding domain inhibition assay may be considered as an alternative representation of physiological cellular conditions for evaluating the inhibitory activity of some of the tested small molecules.
For the assay, all purified small GTPases proteins were diluted in Buffer-I or Buffer-II to a final concentration of 10-30 μg/mL. 200 μL of each diluted protein was added to a nickel-coated 96-well plate and incubated overnight at 4° C. Then the protein solution was discarded and 200 μL of Buffer-I or Buffer-II was added to each well in the presence of 1% DMSO. Compounds to be tested were added to the protein-coated wells at final concentration of 20 μM, and incubated for 3 hours at room temperature with and without 10-30 μg/mL of Sos added to the final hour of the incubation. When performing IC50 measurements a serial dilution of all tested concentrations was added. Then Cy3-GTP or Cy5-GTP was added to each well to a final concentration of 100 nM. The labeled GTP was incubated for 45 minutes at room temperature. Following GTP incubation, wells were washed 3× in Buffer-I or Buffer-II and 200 μL of Buffer-I or Buffer-II was added to each well. Following washes, the amount of bound labeled-GTP was measured using a SpectraMax M3 (Molecular Devices).

[4] = + SOS, read-out: KRas wild type + SOS: % inh.
[5] = without SOS, read-out: KRas wild type: % inh.

KRas wild type, sequence (P01116 other isoform, or with tags, fused parts or gaps): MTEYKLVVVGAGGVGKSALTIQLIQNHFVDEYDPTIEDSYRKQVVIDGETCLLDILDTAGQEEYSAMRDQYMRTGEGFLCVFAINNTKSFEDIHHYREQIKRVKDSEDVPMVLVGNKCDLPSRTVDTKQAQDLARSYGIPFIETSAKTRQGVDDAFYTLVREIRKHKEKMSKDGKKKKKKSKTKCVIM

inhibition at 20 µM [3, 4] [%] | inhibition at 20 µM [3, 5] [%] | SMILES | Activation of JNK in PANC-1 [1] | Activation of MAPK p38 in PANC-1 [2]
76 to 100 | 26 to 45 | COc1cccc(-c2sc3nc(-c4nccn4C)nc(N[C@@H]4CC[C@@H](OC)C4)c3c2-c2ccccc2)c1F (racemic) [Compound 41, 6-(2-Fluoro-3-methoxyphenyl)-N-((1R,3R)-3-methoxycyclopentyl)-2-(1-methyl-1H-imidazol-2-yl)-5-phenylthieno[2,3-d]pyrimidin-4-amine] | Y | Y
76 to 100 | 26 to 45 | COc1cccc(-c2sc3nc(-c4nccn4C)nc(N[C@@H]4CC[C@@H](OC)C4)c3c2C)c1F (racemic) [Compound 43, rac-6-(2-Fluoro-3-methoxyphenyl)-N-((1R,3R)-3-methoxycyclopentyl)-5-methyl-2-(1-methyl-1H-imidazol-2-yl)thieno[2,3-d]pyrimidin-4-amine] | Y | Y
76 to 100 | 46 to 75 | COc1cc(-c2sc3nc(-c4nccn4C)nc(N[C@@H]4CC[C@H](OC)C4)c3c2-c2ccccc2)ccn1 (racemic) [Compound 44, rac-N-((1R,3S)-3-Methoxycyclopentyl)-6-(2-methoxypyridin-4-yl)-2-(1-methyl-1H-imidazol-2-yl)-5-phenylthieno[2,3-d]pyrimidin-4-amine] | Y | N
76 to 100 | 76 to 100 | COc1cc(-c2sc3nc(-c4nccn4C)nc(N[C@@H]4CC[C@@H](OC)C4)c3c2-c2ccccc2)ccn1 (racemic) [Compound 47, N-((1R,3R)-3-Methoxycyclopentyl)-6-(2-methoxypyridin-4-yl)-2-(1-methyl-1H-imidazol-2-yl)-5-phenylthieno[2,3-d]pyrimidin-4-amine] | Y | N
76 to 100 | 46 to 75 | CO[C@@H]1CC[C@H](Nc2nc(-c3nccn3C)nc3sc(-c4ccn(C(C)C)n4)c(-c4ccccc4)c23)C1 (single isomer, unassigned) [Compound 11] | Y | Y
1 to 25 | 1 to 25 | COCCNc1nc(-c2nccn2C)nc2sc(-c3ccccc3)c(-c3ccccc3)c12 [Compound 1, N-(2-Methoxyethyl)-2-(1-methyl-1H-imidazol-2-yl)-5,6-diphenylthieno[2,3-d]pyrimidin-4-amine] | Y | N
 | 46 to 75 | COCCN(C)c1nc(-c2nccn2C)nc2sc(-c3ccccc3)c(-c3ccccc3)c12 [Compound 2, N-(2-Methoxyethyl)-N-methyl-2-(1-methyl-1H-imidazol-2-yl)-5,6-diphenylthieno[2,3-d]pyrimidin-4-amine] | Y | Y
1 to 25 | 46 to 75 | COCCCNc1nc(-c2nccn2C)nc2sc(-c3ccccc3)c(-c3ccccc3)c12 [Compound 3, N-(3-Methoxypropyl)-2-(1-methyl-1H-imidazol-2-yl)-5,6-diphenylthieno[2,3-d]pyrimidin-4-amine] | Y | Y
 | 1 to 25 | COCCNc1nc(-c2nccn2C)nc2sc(-c3ccccc3)c(-c3ccccc3Cl)c12 [Compound 4, 5-(2-Chlorophenyl)-N-(2-methoxyethyl)-2-(1-methyl-1H-imidazol-2-yl)-6-phenylthieno[2,3-d]pyrimidin-4-amine] | Y | Y
26 to 45 | 0 | COC1CCN(c2nc(-c3nccn3C)nc3sc(-c4ccn(C)n4)c(-c4ccccc4)c23)CC1 [Compound 6, 4-(4-Methoxypiperidin-1-yl)-2-(1-methyl-1H-imidazol-2-yl)-6-(1-methyl-1H-pyrazol-3-yl)-5-phenylthieno[2,3-d]pyrimidine] | Y | N
76 to 100 | 46 to 75 | COCCNc1nc(-c2nccn2C)nc2sc(-c3cccc(OC)c3Cl)c(-c3ccc(OC)cc3)c12 [Compound 7, 6-(2-Chloro-3-methoxyphenyl)-N-(2-methoxyethyl)-5-(4-methoxyphenyl)-2-(1-methyl-1H-imidazol-2-yl)thieno[2,3-d]pyrimidin-4-amine] | Y | Y
76 to 100 | 46 to 75 | COCCNc1nc(-c2cn(C)cn2)nc2sc(-c3cccc(OC)c3Cl)c(-c3ccc(OC)cc3)c12 [Compound 8, 6-(2-Chloro-3-methoxyphenyl)-N-(2-methoxyethyl)-5-(4-methoxyphenyl)-2-(1-methyl-1H-imidazol-4-yl)thieno[2,3-d]pyrimidin-4-amine] | Y | Y
76 to 100 | 76 to 100 | COCCn1ccnc1-c1nc(N[C@H]2C[C@@H](OC)C2)c2c(-c3ccccc3)c(-c3ccn(C)n3)sc2n1 [Compound 13, N-((1s,3s)-3-methoxycyclobutyl)-2-(1-(2-methoxyethyl)-1H-imidazol-2-yl)-6-(1-methyl-1H-pyrazol-3-yl)-5-phenylthieno[2,3-d]pyrimidin-4-amine] | Y | N

SMILES | inhibition at 20 µM [3, 4] [%] | inhibition at 20 µM [3, 5] [%] | Activation of JNK in PANC-1 [1] | Activation of MAPK p38 in PANC-1 [2]
COCCNc1nc(-c2nccn2C)nc2sc(-c3cccc(OC)c3Cl)c(-c3ccccc3)c12 [Compound 9, 6-(2-Chloro-3-methoxyphenyl)-N-(2-methoxyethyl)-2-(1-methyl-1H-imidazol-2-yl)-5-phenylthieno[2,3-d]pyrimidin-4-amine] | 76 to 100 | 46 to 75 | Y | Y
